Calls of active or inactive are those of the source. No cut-off for these calls is given here.
Tests used:
[1] = tested on: Mus musculus; assay: Increase in IFN-alpha level in BALB/c mouse serum at 0.3 mg/kg, administered intranasally after 6 hrs by ELISA; format: functional, organism-based
[2] = target: T1, Toll-like receptor 7 (Macaca fascicularis) (UniProt B3Y652); assay: In vivo target occupancy at TLR7 in cynomolgus monkey assessed as fold increase in CCL8 mRNA expression in nasal scrape at 30 ng/kg administered intranasally incubated for 24 hrs by TaqMan analysis (reference value: 1); format: functional
T1 sequence (whole entry): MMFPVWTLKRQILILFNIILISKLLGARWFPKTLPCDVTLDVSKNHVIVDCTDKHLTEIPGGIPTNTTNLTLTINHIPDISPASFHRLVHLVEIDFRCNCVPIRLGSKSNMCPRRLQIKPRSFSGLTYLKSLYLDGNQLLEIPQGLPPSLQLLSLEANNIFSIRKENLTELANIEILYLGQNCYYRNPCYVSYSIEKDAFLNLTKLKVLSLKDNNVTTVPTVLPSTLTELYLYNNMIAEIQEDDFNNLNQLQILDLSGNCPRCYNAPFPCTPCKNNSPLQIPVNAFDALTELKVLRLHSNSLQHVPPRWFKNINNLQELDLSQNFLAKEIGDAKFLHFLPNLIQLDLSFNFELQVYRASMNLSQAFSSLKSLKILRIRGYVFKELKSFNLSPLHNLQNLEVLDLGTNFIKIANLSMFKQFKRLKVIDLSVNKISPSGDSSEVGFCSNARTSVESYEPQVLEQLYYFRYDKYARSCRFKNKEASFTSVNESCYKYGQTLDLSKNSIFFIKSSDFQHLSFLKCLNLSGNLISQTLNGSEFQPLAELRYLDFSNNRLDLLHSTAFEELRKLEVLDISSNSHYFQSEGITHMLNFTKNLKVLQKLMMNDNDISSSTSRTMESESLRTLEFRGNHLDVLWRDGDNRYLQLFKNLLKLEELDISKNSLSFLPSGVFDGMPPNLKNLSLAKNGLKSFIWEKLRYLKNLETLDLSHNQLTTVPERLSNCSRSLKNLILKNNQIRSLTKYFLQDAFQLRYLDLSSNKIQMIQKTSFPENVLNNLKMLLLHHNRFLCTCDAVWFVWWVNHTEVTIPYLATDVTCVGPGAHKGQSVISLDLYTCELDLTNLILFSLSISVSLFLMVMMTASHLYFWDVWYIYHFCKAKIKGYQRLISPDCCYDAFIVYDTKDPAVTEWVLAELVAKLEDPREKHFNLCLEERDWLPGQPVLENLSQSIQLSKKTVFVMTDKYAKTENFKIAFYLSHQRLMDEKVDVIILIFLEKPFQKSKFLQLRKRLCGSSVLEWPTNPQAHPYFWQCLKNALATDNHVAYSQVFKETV

[3] = target: T1, Toll-like receptor 7 (Macaca fascicularis); assay: In vivo target occupancy at TLR7 in cynomolgus monkey assessed as fold increase in OAS2 mRNA expression in nasal scrape at 3 ng/kg administered intranasally incubated for 24 hrs by TaqMan analysis (reference value: 1); format: functional
[4] = tested on: PBMC; assay: Immunomodulatory activity in human PBMC assessed as reduction in house dust mite induced IL-5 level after 6 days; format: functional, cell-based; conditions: dose 0.01-10000 nM, time 6.0 day
[5] = target: Toll-like receptor 3 (Homo sapiens) (UniProt O15455); assay: Agonist activity at TLR3 (unknown origin) expressed in HEK cells upto 50 uM by luciferase reporter assay; format: cell-based
Toll-like receptor 3 (Homo sapiens), sequence (O15455 whole entry): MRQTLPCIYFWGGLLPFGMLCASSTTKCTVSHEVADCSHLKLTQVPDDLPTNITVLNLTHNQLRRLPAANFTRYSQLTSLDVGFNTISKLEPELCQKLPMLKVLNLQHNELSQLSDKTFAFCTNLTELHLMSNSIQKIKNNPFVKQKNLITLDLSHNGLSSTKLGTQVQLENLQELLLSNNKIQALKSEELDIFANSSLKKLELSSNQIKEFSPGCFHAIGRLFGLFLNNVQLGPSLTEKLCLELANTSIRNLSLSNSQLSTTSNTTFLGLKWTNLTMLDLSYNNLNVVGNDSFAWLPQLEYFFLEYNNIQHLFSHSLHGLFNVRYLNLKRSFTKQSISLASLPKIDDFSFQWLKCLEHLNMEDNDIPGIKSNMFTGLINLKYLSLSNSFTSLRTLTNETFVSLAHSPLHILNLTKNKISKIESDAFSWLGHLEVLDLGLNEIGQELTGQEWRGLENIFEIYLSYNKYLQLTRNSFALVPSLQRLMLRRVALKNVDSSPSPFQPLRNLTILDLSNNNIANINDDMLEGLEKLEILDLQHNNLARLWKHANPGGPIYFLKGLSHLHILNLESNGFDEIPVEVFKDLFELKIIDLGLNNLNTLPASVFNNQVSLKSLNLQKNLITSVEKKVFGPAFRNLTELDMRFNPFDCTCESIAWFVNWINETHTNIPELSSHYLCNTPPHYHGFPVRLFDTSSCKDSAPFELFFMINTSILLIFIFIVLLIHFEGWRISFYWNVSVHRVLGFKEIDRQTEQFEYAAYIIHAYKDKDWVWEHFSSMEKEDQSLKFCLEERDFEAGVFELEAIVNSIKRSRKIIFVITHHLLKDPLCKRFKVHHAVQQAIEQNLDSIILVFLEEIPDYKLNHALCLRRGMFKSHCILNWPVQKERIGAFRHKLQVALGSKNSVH

[6] = Toxicity in monkey assessed as NOAEL after 8 weeks; design: species or system Macaca mulatta; conditions: rhesus monkey, in vivo, 1344 h
[7] = Bioavailability in mouse after intranasal administration; format: ADME, organism-based; conditions: in vivo, inhaled or intranasal
[8] = tested on: Mus musculus; assay: Increase in IFN-alpha level in intranasally dosed BALB/c mouse nasal lavage after 6 hrs; format: functional, organism-based
[9] = target: T1, Toll-like receptor 7 (Macaca fascicularis); assay: In vivo target occupancy at TLR7 in cynomolgus monkey assessed as fold increase in CCL8 mRNA expression in nasal scrape at 3 ng/kg administered intranasally incubated for 24 hrs by TaqMan analysis (reference value: 1); format: functional
[10] = Ocular toxicity in monkey assessed as aqueous cells and aqueous flare at 1000 ug/ml, post single dose administration after 6 hrs; design: species or system Macaca mulatta; conditions: rhesus monkey, in vivo, dose 1000 µg/ml
[11] = tested on: Mus musculus; assay: Increase in IP-10 level in BALB/c mouse serum at 0.1 mg/kg, administered intranasally after 2 hrs by ELISA; format: functional, organism-based
[12] = target: T2, Toll-like receptor 7 (Homo sapiens, UniProt Q9NYK1); assay: Agonist activity at TLR7 in human PBMC assessed as IFN-alpha production after 24 hrs by electrochemiluminescence assay; format: cell-based
T2 sequence (Q9NYK1 whole entry): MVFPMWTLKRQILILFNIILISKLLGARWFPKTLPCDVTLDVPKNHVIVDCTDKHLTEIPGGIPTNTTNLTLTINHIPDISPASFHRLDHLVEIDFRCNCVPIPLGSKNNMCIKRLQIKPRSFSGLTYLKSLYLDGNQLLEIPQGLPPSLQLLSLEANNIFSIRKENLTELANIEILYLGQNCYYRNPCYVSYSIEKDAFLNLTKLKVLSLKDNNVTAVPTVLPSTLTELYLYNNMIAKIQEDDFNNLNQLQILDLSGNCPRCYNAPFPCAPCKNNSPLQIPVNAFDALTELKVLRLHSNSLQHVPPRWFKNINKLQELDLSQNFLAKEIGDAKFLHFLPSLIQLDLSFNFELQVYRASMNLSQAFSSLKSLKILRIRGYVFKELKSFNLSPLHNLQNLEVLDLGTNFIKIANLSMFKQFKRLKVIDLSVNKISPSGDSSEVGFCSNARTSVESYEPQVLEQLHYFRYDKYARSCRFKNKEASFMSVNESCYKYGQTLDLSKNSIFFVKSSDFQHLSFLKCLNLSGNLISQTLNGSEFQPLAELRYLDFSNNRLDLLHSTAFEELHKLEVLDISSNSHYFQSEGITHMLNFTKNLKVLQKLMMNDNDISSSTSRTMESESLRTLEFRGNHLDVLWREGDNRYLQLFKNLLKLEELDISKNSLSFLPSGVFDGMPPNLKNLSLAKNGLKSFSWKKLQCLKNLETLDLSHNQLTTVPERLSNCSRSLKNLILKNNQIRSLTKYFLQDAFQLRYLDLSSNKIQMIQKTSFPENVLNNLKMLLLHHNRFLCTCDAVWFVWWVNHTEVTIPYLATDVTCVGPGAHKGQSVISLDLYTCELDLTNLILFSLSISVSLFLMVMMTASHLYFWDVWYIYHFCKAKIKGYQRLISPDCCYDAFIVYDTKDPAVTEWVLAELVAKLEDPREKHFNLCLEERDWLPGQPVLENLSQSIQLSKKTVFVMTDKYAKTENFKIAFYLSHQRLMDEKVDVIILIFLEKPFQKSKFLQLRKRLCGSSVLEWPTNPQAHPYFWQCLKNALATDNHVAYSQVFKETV

[13] = target: T1, Toll-like receptor 7 (Macaca fascicularis); assay: In vivo target occupancy at TLR7 in cynomolgus monkey assessed as fold increase in IFIT2 mRNA expression in nasal scrape at 3 ng/kg administered intranasally incubated for 24 hrs by TaqMan analysis (reference value: 2.1); format: functional
[14] = Systemic clearance in mouse; format: ADME, organism-based; conditions: in vivo

SMILES: CCC[C@H](C)Oc1nc(N)c2[nH]c(=O)n(CCCCCN3CCCCC3)c2n1 [GSK-2245035]
- Activity [1]: inactive
- fold change (FC) [2]: 19300
- fold change (FC) [3]: 128
- Activity [4]: Dose-Dependent Effect
- Activity [5]: inactive
- NOAEL [6]: 0.0359 µg/kg
- bioavailability [7]: 42%
- Activity [8]: inactive
- fold change (FC) [9]: 3970
- Activity [10]: Toxic
- Activity [11]: Active
- EC50 [12]: 7.94 nM
- fold change (FC) [13]: 108
- clearance [14]: 107 mL/min/kg

From ChEMBL document CHEMBL5252515, “Discovery of 6-Amino-2-{[(1S)-1-methylbutyl]oxy}-9-[5-(1-piperidinyl)pentyl]-7,9-dihydro-8H-purin-8-one (GSK2245035), a Highly Potent and Selective Intranasal Toll-Like Receptor 7 Agonist for the Treatment of Asthma” (J Med Chem, 2016)
